Laboratory results published in patent EP4644391A1, “NOVEL PHENYLQUINOLONE COMPOUND HAVING ANTIBACTERIAL AND ANTICANCER FUNCTIONS, AND PREPARATION THEREOF” (Alphamol Science Ltd (Shanghai), priority 2022, dated 2024).
≈ marks a conversion by molar mass, not a printed value.

System: Staphylococcus aureus ATCC43300
Test: Resistance test of bacteria against compounds (serial passage, 21 days)
Assay type: cell-based
Conditions: Staphylococcus aureus, ATCC43300, 504 h, read-out: MIC at the end of the experiment
Description: This example provides a resistance test of bacteria against compounds, and the specific experimental method is as follows. • 1. […] It was ensured that among the 6 final concentrations of the drug diluted into the wells, some were higher than the original MIC of the bacteria and some were lower than the original MIC of the bacteria. • 2. Preparation of bacterial liquid: 10 mL of culture medium was taken and added to a sterilized plate using a pipette, then 100 µL of the above-mentioned passaged bacterial liquid was added, and mixed well for later use. • 3. The above-mentioned diluted bacterial liquid was taken and added to a 96-well plate using a pipette, 180 µL per well, 3 wells per group, 6 groups in total. 20 µL of drug solution was added to each well (note: it is necessary to replace the pipette tip each time the drug is added), so that the final drug concentrations were 2 µg/mL, 1 µg/mL, 0.8 µg/mL, 0.4 µg/mL, 0.2 µg/mL, 0.1 µg/mL, respectively. The well with 200 µL of diluted bacterial liquid was used as the positive control well, and the well with 200 µL of culture medium was used as the negative control well.
The test object was Staphylococcus aureus (S. aureus). The specific results are shown in FIG1.

For CN[C@H](CC(C)C)C(=O)N[C@H]1C(=O)N[C@@H](CC(N)=O)C(=O)N[C@H]2C(=O)N[C@H]3C(=O)N[C@H](C(=O)N[C@H](C(=O)O)c4cc(O)cc(O)c4-c4cc3ccc4O)[C@H](O)c3ccc(c(Cl)c3)Oc3cc2cc(c3O[C@@H]2O[C@H](CO)[C@@H](O)[C@H](O)[C@H]2O[C@H]2C[C@](C)(N)[C@H](O)[C@H](C)O2)Oc2ccc(cc2Cl)[C@H]1O [vancomycin], the MIC was 4 µg/mL (≈ 2.76 µM).
